Patent publication US9333193B2, “Compositions and methods for treating tuberculosis” (priority 2010, dated 2016)
Converted amounts (≈) assume the structure as drawn. Read-outs that look alike come from different tables or passages of the source.

Key:
[1] = tested on: Mycobacterium abscessus AAy-P-1; experiment: Anti-mycobacterial activity of nitazoxanides, MIC in Middlebrook 7H9; assay type: cell-based; conditions: Middlebrook 7H9, 37° C.; for MIC: Mycobacteroides abscessus, AAYP1, read-out: Minimal Inhibitory Concentration, M. abscessus
Description: (§1) (1) Strains: Mycobacterium smegmatis mc2155, Mycobacterium chelonae EOP-1, Mycobacterium marinum ATCC 927, Mycobacterium avium Va14(T), and Mycobacterium abscessus AAy-P-1).
(§2) (2) Medium: Middlebrook 7H9 containing 0.5% (vol/vol) glycerol and 10% (vol/vol) oleic acid-albumin.
(§3) (3) Incubation Temperature: 37° C., except M. marinum 30° C.
(§4) (4) Nitazoxanides: Precipitates were present in wells of nitazoxanides with high concentrations (250-31 μg/mL) except for 162080, 162088, 16b2026, and 16b2031.
(§5) The strains used were Mycobacterium smegmatis mc2155, Mycobacterium chelonae EOP-1, Mycobacterium marinum ATCC 927, Mycobacterium avium Va14(T), and Mycobacterium abscessus AAy-P-1. The medium use was Middlebrook 7H9 containing 0.5% (vol/vol) glycerol and 10% (vol/vol) oleic acid-albumin. Incubation Temperature was 37° C., except for M. marinum at 30° C. For nitazoxanides, precipitates were present in wells of nitazoxanides with high concentrations (250-31 μg/mL) except for 162080, 162088, 16b2026, and 16b2031.

[2] = tested on: Mycobacterium chelonae EOP-1; experiment: as above; assay type: cell-based; conditions: Middlebrook 7H9, 37° C.; for MIC: read-out: Minimal Inhibitory Concentration, M. chelonae
Description: as §1, §2, §3, §4, §5

[3] = tested on: Mycobacterium marinum ATCC 927; experiment: as above; assay type: cell-based; conditions: Middlebrook 7H9, 30° C.; for MIC: Mycobacterium marinum, ATCC927, read-out: Minimal Inhibitory Concentration, M. marinum
Description: as §1, §2, §3, §4, §5

[4] = tested on: Mycobacterium avium Va14(T); experiment: as above; assay type: cell-based; conditions: Middlebrook 7H9, 37° C.; for MIC: Mycobacterium avium, read-out: Minimal Inhibitory Concentration, M. avium
Description: as §1, §2, §3, §4, §5

[5] = tested on: Mycobacterium tuberculosis; experiment: microbe, parasite or virus in culture; conditions: agar proportion
[6] = tested on: M. tuberculosis; experiment: microbe, parasite or virus in culture; assay type: cell-based, Mycobacterium tuberculosis; parameters: % Inhibit growth, H37Rv / % Inhibit growth, Susceptible / % Inhibit growth, MDR / % Inhibit growth, XDR / inhibition: dose or concentration left out as unconfirmed; conditions: for inhibition: Mycobacterium tuberculosis; for % Inhibit growth, MDR: MDR strain; for % Inhibit growth, Susceptible: Susceptible strain; for % Inhibit growth, XDR: XDR strain; for % Inhibit growth, H37Rv: strain H37Rv
[7] = tested on: Mycobacterium smegmatis mc2155; experiment: Anti-mycobacterial activity of nitazoxanides, MIC in Middlebrook 7H9; assay type: cell-based; conditions: Middlebrook 7H9, 37° C.; for MIC: Mycolicibacterium smegmatis, MC2155, read-out: Minimal Inhibitory Concentration, M. smegmatis
Description: as §1, §2, §3, §4
(5) Decolorization: Almost all the yellow nitazoxanides, namely 16b1090, 16b1092 and 16b1093, 16b1094, 16b2023, 16b2025, and 16b2026 were decolorized by M. smegmatis strain mc2155. None of the other mycobacterial strains decolorized the compounds. Note that the compound numbers are also referred to herein with the prefix VPC.
as §5
Decolorization: Almost all the yellow nitazoxanides, namely 16b1090, 16b1092 and 16b1093, 16b1094, 16b2023, 16b2025, and 16b2026 were decolorized by M. smegmatis strain mc2155. None of the other mycobacterial strains decolorized the compounds.

[8] = read-out: % Inhibit growth, MDR
[9] = read-out: % Inhibit growth, XDR

Compound	MIC [1]	MIC [2]	MIC [3]	MIC [4]	inhibition [6, 8]	inhibition [6, 9]	MIC [7]	% Inhibit growth, MDR ([6]; agar proportion method)	% Inhibit growth, Susceptible ([6]; agar proportion method)	% Inhibit growth, XDR ([6]; agar proportion method)	% Inhibit growth, H37Rv ([6]; agar proportion method)	other results
O=C(Nc1sc([N+](=O)[O-])cc1[N+](=O)[O-])c1ccoc1 [VPC16b1094]	2 µg/mL (≈ 7.06 µM)	2 µg/mL (≈ 7.06 µM)	4 µg/mL (≈ 14.1 µM)	16 µg/mL (≈ 56.5 µM)	100%	100%	16 µg/mL (≈ 56.5 µM)	–	–	–	–	MIC ([5]; H37RV, isolate H37Rv (Reference)): 4000 µg/mL (≈ 14100 µM); MIC ([5]; isolate 234 (MDR-TB)): 4000 µg/mL (≈ 14100 µM); MIC ([5]; isolate 283 (susceptible)): 4000 µg/mL (≈ 14100 µM); MIC ([5]; isolate 565 (MDR-TB)): 4000 µg/mL (≈ 14100 µM); MIC ([5]; isolate 694 (MDR-TB)): 4000 µg/mL (≈ 14100 µM); MIC ([5]; isolate 750 (MDR-TB)): 4000 µg/mL (≈ 14100 µM); MIC ([5]; isolate 823 (XDR-TB)): 4000 µg/mL (≈ 14100 µM); MIC ([5]; isolate 971 (MDR-TB)): 4000 µg/mL (≈ 14100 µM); Potency against M. tuberculosis in words (Table 1) ([6]; agar proportion method): most potent
O=C(Nc1sc([N+](=O)[O-])cc1[N+](=O)[O-])c1cc(C(F)(F)F)ccc1Cl [VPC16b2026, 2-Chloro-N-(3,5-dinitrothiophen-2-yl)-5-(trifluoromethyl)benzamide]	0.25 µg/mL (≈ 0.632 µM)	4 µg/mL (≈ 10.1 µM)	8 µg/mL (≈ 20.2 µM)	16 µg/mL (≈ 40.4 µM)	–	–	31 µg/mL (≈ 78.3 µM)	–	–	–	–	–
NCCOc1ccccc1C(=O)Nc1sc([N+](=O)[O-])cc1[N+](=O)[O-] [VPC16b2031, 2-(2-Aminoethoxy)-N-(3,5-dinitrothiophen-2-yl)benzamide]	250 µg/mL (≈ 710 µM)	125 µg/mL (≈ 355 µM)	16 µg/mL (≈ 45.4 µM)	63 µg/mL (≈ 179 µM)	–	–	63 µg/mL (≈ 179 µM)	–	–	–	–	–
O=C(Nc1ncc([N+](=O)[O-])s1)c1cc2ccccc2s1 [VPC161180]	–	–	–	–	–	–	–	0%	0%	50%	80%	–
O=C(Nc1ncc([N+](=O)[O-])s1)c1cccc(C(F)(F)F)c1 [VPC161183, N-(5-Nitrothiazol-2-yl)-3-(trifluoromethyl)benzamide]	–	–	–	–	70%	50%	–	–	–	–	–	–
CC(C)(C)OC(=O)Nc1ccccc1C(=O)Nc1ncc([N+](=O)[O-])s1 [VPC162047, tert-Butyl 2-(5-nitrothiazol-2-ylcarbamoyl)phenylcarbamate]	–	–	–	–	92%	50%	–	–	–	–	–	–
CCCCCC(=O)Nc1nc(Cl)c([N+](=O)[O-])s1 [VPC162080]	–	–	–	–	–	–	–	95%	73%	90%	90%	Minimal Inhibitory Concentration, M. abscessus [1]: 0.25 µg/mL; Minimal Inhibitory Concentration, M. chelonae [2]: 16 µg/mL; Minimal Inhibitory Concentration, M. marinum [3]: 16 µg/mL; Minimal Inhibitory Concentration, M. avium [4]: 125 µg/mL; Minimal Inhibitory Concentration, M. smegmatis [7]: 125 µg/mL
O=C(Nc1nc(Cl)c([N+](=O)[O-])s1)c1ccccc1 [VPC162087]	–	–	–	–	–	–	–	100%	97%	100%	97%	Minimal Inhibitory Concentration, M. abscessus [1]: >250 µg/mL; Minimal Inhibitory Concentration, M. chelonae [2]: 16 µg/mL; Minimal Inhibitory Concentration, M. marinum [3]: 16 µg/mL; Minimal Inhibitory Concentration, M. avium [4]: 125 µg/mL; Minimal Inhibitory Concentration, M. smegmatis [7]: 31 µg/mL
O=C(Nc1nc(Cl)c([N+](=O)[O-])s1)c1cccc(C(F)(F)F)c1 [VPC162088]	0.5 µg/mL (≈ 1.42 µM)	63 µg/mL (≈ 179 µM)	31 µg/mL (≈ 88.1 µM)	250 µg/mL (≈ 711 µM)	90%	70%	31 µg/mL (≈ 88.1 µM)	–	–	–	–	–
